Results published in US20100267637A1, “TREATMENT OF MELANOMA WITH ALPHA THYMOSIN PEPTIDES IN COMBINATION WITH A KINASE INHIBITOR” (SciClone Pharmaceuticals, Inc., priority 2007, published 2010).
Where no end group is shown, it is not given here.

Tested on: murine B16 melanoma cells
Assay: Anti-tumor effect: tumor size / tumor volume in mice bearing subcutaneous B16 melanoma
Type: in vivo, C57BL/6 mice
Design: key to Tumor measurement L (length) / Tumor measurement W (width): The sign “—” indicates that tumor does not reach a measurable size
Settings: for Tumor Volume (cm^3) (Mean ± SD): group mean; for PI (TV), percent inhibition of tumor volume: vs vehicle; for Tumor volumes on Day 15: Length × Width × Width/2
Description: The toxic effects of the dosing regimens were also monitored. […] Meanwhile 9H10 was given in two groups via i.p. on Day 3, 6 and 9. […] Tumor volume and body weight were measured every three days, and tumor weights were measured on Day 16 at the end of the study.
As per aseptic tissue culture procedures, one vial of B16 melanoma cells was removed from the liquid nitrogen stock, and placed into a 37° C. water bath. Gentle swirling was conducted until the content of the vial was thawed. Using tissue culture/sterile procedures, the cells were immediately centrifuged with a TD5A-WS centrifuge at 1000 rpm, 20-25° C., 5 min. After centrifugation, the cells were suspended in 0.1 to 0.5 mL normal saline (NS) and subcutaneously injected into 10 mice (0.1 mL/mouse, about 1×10^6 cells). After 7-10 days, when the tumor diameter was approximately 1 cm, the animals were euthanized with CO2 overdose and the tumors excised. The procedure was repeated with 20 mice to generate a sufficient number of B16 melanoma cells with adequate transplantability.
On the day of tumor implantation, approximately 1×10^6 cells in 0.1 mL were subcutaneously injected on the right axillary area of each mouse. The day of tumor implantation was defined as Day 0.
On Day 3, the animals were randomly assigned into nine different weight-matched and tumor-size-matched groups. Dosing was started on Day 3 using the regimen according to Table 2.
From Day 1 to Day 15, mortality and moribundity were checked twice daily, the body weights were recorded once every 3 days, and tumors were measured using a caliper once every 3 days. At the end of the study (Day 16), the animals were euthanized by CO2 asphyxiation, and the tumors were excised and weighed.
Based on the tumor size, the tumor volume (TV) was calculated with the formula: [TV=(Length×Width×Width)/2]. And the percent inhibition (PI) of TV (PITV) was calculated according to the equation below:
PITV(%)=(TV vehicle−TVdrug treated)/TV vehicle×100
Inter-group comparison was performed in terms of tumor volume, tumor weight and body weight, using a student's t test. P values of less than 0.05 were considered to be statistically significant.

Thymosin Alpha-1 (Ac-SDAAVDTSSEITTKDLKEKKEVVEEAEN; ends and bridges not checked; UniProt P06454 2-29, looked up) [TA-1, 28 amino acid peptide, immunomodulator; test article (SciClone), 6 mg/kg s.c. daily]
Tumor measurement L (length) (Day 3, animal F1): —
Tumor measurement W (width) (Day 3, animal F1): —
Tumor volume (Day 3, animal F1): 0.0000 cm^3
Tumor measurement L (length) (Day 3, animal F2): —
Tumor measurement W (width) (Day 3, animal F2): —
Tumor volume (Day 3, animal F2): 0.0000 cm^3
Tumor measurement L (length) (Day 3, animal F3): —
Tumor measurement W (width) (Day 3, animal F3): —
Tumor volume (Day 3, animal F3): 0.0000 cm^3
Tumor measurement L (length) (Day 3, animal F4): 0.10 cm
Tumor measurement W (width) (Day 3, animal F4): 0.10 cm
Tumor volume (Day 3, animal F4): 0.0005 cm^3
Tumor measurement L (length) (Day 3, animal F5): —
Tumor measurement W (width) (Day 3, animal F5): —
Tumor volume (Day 3, animal F5): 0.0000 cm^3
Tumor measurement L (length) (Day 3, animal M1): —
Tumor measurement W (width) (Day 3, animal M1): —
Tumor volume (Day 3, animal M1): 0.0000 cm^3
Tumor measurement L (length) (Day 3, animal M2): —
Tumor measurement W (width) (Day 3, animal M2): —
Tumor volume (Day 3, animal M2): 0.0000 cm^3
Tumor measurement L (length) (Day 3, animal M3): —
Tumor measurement W (width) (Day 3, animal M3): —
Tumor volume (Day 3, animal M3): 0.0000 cm^3
Tumor measurement L (length) (Day 3, animal M4): —
Tumor measurement W (width) (Day 3, animal M4): —
Tumor volume (Day 3, animal M4): 0.0000 cm^3
Tumor measurement L (length) (Day 3, animal M5): —
Tumor measurement W (width) (Day 3, animal M5): —
Tumor volume (Day 3, animal M5): 0.0000 cm^3
Tumor Volume (cm^3) (Mean ± SD) (Day 3): 0.000 ± 0.0002 cm^3
PI (TV), percent inhibition of tumor volume (Day 3): 50.00%
Tumor measurement L (length) (Day 6, animal F1): —
Tumor measurement W (width) (Day 6, animal F1): —
Tumor volume (Day 6, animal F1): 0.0000 cm^3
Tumor measurement L (length) (Day 6, animal F2): —
Tumor measurement W (width) (Day 6, animal F2): —
Tumor volume (Day 6, animal F2): 0.0000 cm^3
Tumor measurement L (length) (Day 6, animal F3): —
Tumor measurement W (width) (Day 6, animal F3): —
Tumor volume (Day 6, animal F3): 0.0000 cm^3
Tumor measurement L (length) (Day 6, animal F4): —
Tumor measurement W (width) (Day 6, animal F4): —
Tumor volume (Day 6, animal F4): 0.0000 cm^3
Tumor measurement L (length) (Day 6, animal F5): —
Tumor measurement W (width) (Day 6, animal F5): —
Tumor volume (Day 6, animal F5): 0.0000 cm^3
Tumor measurement L (length) (Day 6, animal M1): —
Tumor measurement W (width) (Day 6, animal M1): —
Tumor volume (Day 6, animal M1): 0.0000 cm^3
Tumor measurement L (length) (Day 6, animal M2): —
Tumor measurement W (width) (Day 6, animal M2): —
Tumor volume (Day 6, animal M2): 0.0000 cm^3
Tumor measurement L (length) (Day 6, animal M3): —
Tumor measurement W (width) (Day 6, animal M3): —
Tumor volume (Day 6, animal M3): 0.0000 cm^3
Tumor measurement L (length) (Day 6, animal M4): —
Tumor measurement W (width) (Day 6, animal M4): —
Tumor volume (Day 6, animal M4): 0.0000 cm^3
Tumor measurement L (length) (Day 6, animal M5): —
Tumor measurement W (width) (Day 6, animal M5): —
Tumor volume (Day 6, animal M5): 0.0000 cm^3
Tumor Volume (cm^3) (Mean ± SD) (Day 6): 0.000 ± 0.0000 cm^3
PI (TV), percent inhibition of tumor volume (Day 6): 100.00%
Tumor measurement L (length) (Day 9, animal F1): 0.10 cm
Tumor measurement W (width) (Day 9, animal F1): 0.10 cm
Tumor volume (Day 9, animal F1): 0.0005 cm^3
Tumor measurement L (length) (Day 9, animal F2): 0.10 cm
Tumor measurement W (width) (Day 9, animal F2): 0.10 cm
Tumor volume (Day 9, animal F2): 0.0005 cm^3
Tumor measurement L (length) (Day 9, animal F3): 0.10 cm
Tumor measurement W (width) (Day 9, animal F3): 0.10 cm
Tumor volume (Day 9, animal F3): 0.0005 cm^3
Tumor measurement L (length) (Day 9, animal F4): 0.20 cm
Tumor measurement W (width) (Day 9, animal F4): 0.20 cm
Tumor volume (Day 9, animal F4): 0.0040 cm^3
Tumor volume (Day 9, animal F5): 0.0000 cm^3
Tumor measurement L (length) (Day 9, animal M1): 0.10 cm
Tumor measurement W (width) (Day 9, animal M1): 0.10 cm
Tumor volume (Day 9, animal M1): 0.0005 cm^3
Tumor measurement L (length) (Day 9, animal M2): 0.20 cm
Tumor measurement W (width) (Day 9, animal M2): 0.20 cm
Tumor volume (Day 9, animal M2): 0.0040 cm^3
Tumor measurement L (length) (Day 9, animal M3): 0.50 cm
Tumor measurement W (width) (Day 9, animal M3): 0.50 cm
Tumor volume (Day 9, animal M3): 0.0625 cm^3
Tumor measurement L (length) (Day 9, animal M4): 0.20 cm
Tumor measurement W (width) (Day 9, animal M4): 0.20 cm
Tumor volume (Day 9, animal M4): 0.0040 cm^3
Tumor measurement L (length) (Day 9, animal M5): 0.30 cm
Tumor measurement W (width) (Day 9, animal M5): 0.30 cm
Tumor volume (Day 9, animal M5): 0.0135 cm^3
Tumor Volume (cm^3) (Mean ± SD) (Day 9): 0.009 ± 0.0192 cm^3
PI (TV), percent inhibition of tumor volume (Day 9): 56.73%
Tumor volume (Day 12, animal F1): 0.0625 cm^3
Tumor measurements on Day 12, L (Day 12, animal F1): 0.50 cm
Tumor measurements on Day 12, W (Day 12, animal F1): 0.50 cm
Tumor volume (Day 12, animal F2): 0.0625 cm^3
Tumor measurements on Day 12, L (Day 12, animal F2): 0.50 cm
Tumor measurements on Day 12, W (Day 12, animal F2): 0.50 cm
Tumor volume (Day 12, animal F3): 0.0625 cm^3
Tumor measurements on Day 12, L (Day 12, animal F3): 0.50 cm
Tumor measurements on Day 12, W (Day 12, animal F3): 0.50 cm
Tumor volume (Day 12, animal F4): 0.1715 cm^3
Tumor measurements on Day 12, L (Day 12, animal F4): 0.70 cm
Tumor measurements on Day 12, W (Day 12, animal F4): 0.70 cm
Tumor volume (Day 12, animal F5): 0.0005 cm^3
Tumor measurements on Day 12, L (Day 12, animal F5): 0.10 cm
Tumor measurements on Day 12, W (Day 12, animal F5): 0.10 cm
Tumor volume (Day 12, animal M1): 0.0625 cm^3
Tumor measurements on Day 12, L (Day 12, animal M1): 0.50 cm
Tumor measurements on Day 12, W (Day 12, animal M1): 0.50 cm
Tumor volume (Day 12, animal M2): 0.1715 cm^3
Tumor measurements on Day 12, L (Day 12, animal M2): 0.70 cm
Tumor measurements on Day 12, W (Day 12, animal M2): 0.70 cm
Tumor volume (Day 12, animal M3): 0.3645 cm^3
Tumor measurements on Day 12, L (Day 12, animal M3): 0.90 cm
Tumor measurements on Day 12, W (Day 12, animal M3): 0.90 cm
Tumor volume (Day 12, animal M4): 0.0625 cm^3
Tumor measurements on Day 12, L (Day 12, animal M4): 0.50 cm
Tumor measurements on Day 12, W (Day 12, animal M4): 0.50 cm
Tumor volume (Day 12, animal M5): 0.3645 cm^3
Tumor measurements on Day 12, L (Day 12, animal M5): 0.90 cm
Tumor measurements on Day 12, W (Day 12, animal M5): 0.90 cm
Tumor Volume (cm^3) (Mean ± SD) (Day 12): 0.139 ± 0.1301 cm^3
PI (TV), percent inhibition of tumor volume (Day 12): 59.58%
Tumor measurements on Day 15, L (Day 15, animal F1): 0.70 cm
Tumor volumes on Day 15 (Day 15, animal F1): 0.1715 cm^3
Tumor measurements on Day 15, W (Day 15, animal F1): 0.70 cm
Tumor measurements on Day 15, L (Day 15, animal F2): 0.70 cm
Tumor volumes on Day 15 (Day 15, animal F2): 0.1260 cm^3
Tumor measurements on Day 15, W (Day 15, animal F2): 0.60 cm
Tumor measurements on Day 15, L (Day 15, animal F3): 0.60 cm
Tumor volumes on Day 15 (Day 15, animal F3): 0.1080 cm^3
Tumor measurements on Day 15, W (Day 15, animal F3): 0.60 cm
Tumor measurements on Day 15, L (Day 15, animal F4): 1.00 cm
Tumor volumes on Day 15 (Day 15, animal F4): 0.2450 cm^3
Tumor measurements on Day 15, W (Day 15, animal F4): 0.70 cm
Tumor measurements on Day 15, L (Day 15, animal F5): 0.30 cm
Tumor volumes on Day 15 (Day 15, animal F5): 0.0135 cm^3
Tumor measurements on Day 15, W (Day 15, animal F5): 0.30 cm
Tumor measurements on Day 15, L (Day 15, animal M1): 0.70 cm
Tumor volumes on Day 15 (Day 15, animal M1): 0.1715 cm^3
Tumor measurements on Day 15, W (Day 15, animal M1): 0.70 cm
Tumor measurements on Day 15, L (Day 15, animal M2): 1.00 cm
Tumor volumes on Day 15 (Day 15, animal M2): 0.5000 cm^3
Tumor measurements on Day 15, W (Day 15, animal M2): 1.00 cm
Tumor measurements on Day 15, L (Day 15, animal M3): 1.00 cm
Tumor volumes on Day 15 (Day 15, animal M3): 0.5000 cm^3
Tumor measurements on Day 15, W (Day 15, animal M3): 1.00 cm
Tumor measurements on Day 15, L (Day 15, animal M4): 1.00 cm
Tumor volumes on Day 15 (Day 15, animal M4): 0.4050 cm^3
Tumor measurements on Day 15, W (Day 15, animal M4): 0.90 cm
Tumor measurements on Day 15, L (Day 15, animal M5): 1.00 cm
Tumor volumes on Day 15 (Day 15, animal M5): 0.5000 cm^3
Tumor measurements on Day 15, W (Day 15, animal M5): 1.00 cm
Tumor Volume (cm^3) (Mean ± SD) (Day 15): 0.274 ± 0.1855 cm^3
PI (TV), percent inhibition of tumor volume (Day 15): 62.57%
effect on tumor growth in words (daily dosing Days 3-15): effective against the tumor growth
reduction of mean tumor volume in comparison to vehicle control (throughout the course of the study, 6 mg/kg s.c. daily): 50-60%
